# Assay results as given in patent US9650339B2, “Inhibitors of histone demethylases” (Gilead Sciences, Inc., priority 2013, dated 2017).
# What was measured:
# [1] = target: KDM6A (UTX) (Homo sapiens, UniProt O15550); assay: Histone lysine demethylase AlphaLISA assay, KDM6A; assay type: biochemical; conditions: read-out: KDM6A HDME Inhibition IC50
# How it was run: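 Biotinylated methylated H3 peptides (K9, K4, K27 or K36 marks) served as substrate, with 25 μM L-Asc and 10 μM α-KG. Enzymes were preincubated 10 min, then exposed to compounds (3% DMSO solutions) 10 min; product detected by AlphaLISA acceptor and streptavidin donor beads at room temperature in dark.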
# [2] = target: T1, KDM5B (Homo sapiens, UniProt Q9UGL1); assay: Histone lysine demethylase immunofluorescence assay, U2OS cells transfected with KDM5B; assay type: cell-based; conditions: U2OS cells transfected with pCMVHA KDM5B; mark detected H3K4me2; 20 hours
# T1 construct: (a.a. 1-752); host or cells: U2OS
# T1 sequence (Q9UGL1 1-752): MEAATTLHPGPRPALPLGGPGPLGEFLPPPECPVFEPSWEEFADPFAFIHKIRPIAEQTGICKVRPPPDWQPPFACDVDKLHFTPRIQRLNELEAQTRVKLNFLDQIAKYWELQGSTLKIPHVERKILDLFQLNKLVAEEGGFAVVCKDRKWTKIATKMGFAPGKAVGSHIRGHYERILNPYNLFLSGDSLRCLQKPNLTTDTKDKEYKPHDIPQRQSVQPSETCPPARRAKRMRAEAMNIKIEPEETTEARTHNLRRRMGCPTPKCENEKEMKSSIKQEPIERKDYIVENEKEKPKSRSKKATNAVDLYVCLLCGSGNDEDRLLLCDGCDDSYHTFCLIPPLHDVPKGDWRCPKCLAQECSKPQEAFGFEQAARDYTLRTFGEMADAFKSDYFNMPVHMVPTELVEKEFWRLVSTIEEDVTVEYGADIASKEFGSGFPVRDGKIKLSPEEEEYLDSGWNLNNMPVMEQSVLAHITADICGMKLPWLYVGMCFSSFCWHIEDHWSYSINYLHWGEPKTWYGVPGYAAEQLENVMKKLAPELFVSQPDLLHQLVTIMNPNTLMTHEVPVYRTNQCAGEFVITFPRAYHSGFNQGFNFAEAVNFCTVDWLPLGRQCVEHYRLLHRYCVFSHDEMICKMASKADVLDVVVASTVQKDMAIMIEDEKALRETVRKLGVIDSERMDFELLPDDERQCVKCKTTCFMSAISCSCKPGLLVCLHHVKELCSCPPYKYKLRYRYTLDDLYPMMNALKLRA
# Method: U2OS cells were seeded 24 hours before transfection. Transfection was performed with Fugene HD transfection reagent as recommended by the manufacturer. 6 hours after transfection, the cells were harvested and seeded into multi well plates into media containing compound. The media used was DMEM containing 10% FBS and pen/strep. 20 hours after incubation of cells with compounds, the cells were washed in PBS, harvested by fixation with formaldehyde 4% aqueous solution, and washed in PBS. Subsequently, the cells were permeabilized in PBS with 0.2% Triton X-100 for. Blocking was performed in PBS with 0.2% Triton X-100 and 5% FBS. The cells were incubated with primary antibodies in blocking solution over night at 4° C. The primary antibodies used in the assays were HA.11 (Covance, MMS-101P) and the antibody detecting the mark specified in the table below. After incubation with primary antibodies, the cells were washed with PBS, incubated with secondary antibodies (Alexa fluor 594 goat anti rabbit IgG, Invitrogen, A11012; Alexa flour 488 donkey anti mouse IgG, Invitrogen, A21202) and Hoechst, (Sigma, 33342) in blocking solution, and washed again with PBS. Finally, PBS was added and high throughput imaging and analysis were performed by an IN Cell Analyzer 1000 (GE Healthcare). The robot software analyzed individual cells and divided these into HA+ (transfected cells) and HA− (non-transfected cells). The IC50 values were based on an average measure of the staining of the mark specified in the table below in the transfected cells.
# [3] = target: T2, KDM3B (JMJD1B) (Homo sapiens, UniProt Q7LBC6); assay: Histone lysine demethylase AlphaLISA assay, KDM3B; assay type: biochemical; conditions: read-out: KDM3B HDME Inhibition IC50
# T2 construct: 842-1761; host or cells: Bac (baculovirus system)
# T2 sequence (Q7LBC6 842-1761): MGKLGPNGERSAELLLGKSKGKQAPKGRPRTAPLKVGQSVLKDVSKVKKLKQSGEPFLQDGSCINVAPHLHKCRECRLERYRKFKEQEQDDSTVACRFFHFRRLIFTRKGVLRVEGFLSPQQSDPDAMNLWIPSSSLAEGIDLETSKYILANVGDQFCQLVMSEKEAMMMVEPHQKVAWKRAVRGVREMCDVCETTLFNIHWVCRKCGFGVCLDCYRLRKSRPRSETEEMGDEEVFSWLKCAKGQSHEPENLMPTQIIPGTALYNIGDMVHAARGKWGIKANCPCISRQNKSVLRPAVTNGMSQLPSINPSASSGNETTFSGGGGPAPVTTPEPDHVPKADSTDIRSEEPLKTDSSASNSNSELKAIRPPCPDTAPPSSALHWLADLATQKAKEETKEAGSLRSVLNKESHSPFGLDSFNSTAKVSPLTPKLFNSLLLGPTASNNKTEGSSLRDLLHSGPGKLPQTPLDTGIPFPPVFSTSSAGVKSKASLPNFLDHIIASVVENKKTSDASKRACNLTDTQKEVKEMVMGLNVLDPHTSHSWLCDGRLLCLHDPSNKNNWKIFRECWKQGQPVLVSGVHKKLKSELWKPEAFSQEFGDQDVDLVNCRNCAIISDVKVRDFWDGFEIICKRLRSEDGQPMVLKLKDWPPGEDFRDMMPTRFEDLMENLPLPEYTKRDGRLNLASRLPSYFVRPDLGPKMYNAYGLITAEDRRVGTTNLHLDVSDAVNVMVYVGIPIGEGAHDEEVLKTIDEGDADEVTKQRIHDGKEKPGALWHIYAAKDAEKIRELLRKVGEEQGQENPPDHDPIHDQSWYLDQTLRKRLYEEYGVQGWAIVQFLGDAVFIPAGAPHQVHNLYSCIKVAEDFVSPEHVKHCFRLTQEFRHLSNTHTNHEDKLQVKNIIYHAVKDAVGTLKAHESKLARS
# Method: Assays are performed analogously to the protocol described by PerkinElmer (Roy et al. PerkinElmer Technical Note: AlphaLISA #12, April 2011)
# Enzymes are dissolved in enzyme buffer and incubated for 10 min before being added to 3% DMSO solutions of compounds in enzyme buffer. Incubated for another 10 minutes, before substrate solution is added and the reaction mixture is incubated at room temperature. 10 μL acceptor beads, suspended in Epigenetic Buffer (Perkin Elmer AL008) from stock, are added and the suspension is incubated in the dark at room temperature, before a suspension of streptavidin donor beads (Perkin Elmer 6760002) in Epigenetic Buffer is added. After incubation at room temperature in the dark the plates are read. […]
# BK9M2: Biotin-ARTKQTAR(KMe2)STGGKAPRKQ-NH2 (AnaSpec 64359) […]
# Substrate Solution: Substrate, 25 μM L-Asc, and 10 μM α-KG in Buffer A.
# KDM6A (UTX), sequence (O15550 919-1401): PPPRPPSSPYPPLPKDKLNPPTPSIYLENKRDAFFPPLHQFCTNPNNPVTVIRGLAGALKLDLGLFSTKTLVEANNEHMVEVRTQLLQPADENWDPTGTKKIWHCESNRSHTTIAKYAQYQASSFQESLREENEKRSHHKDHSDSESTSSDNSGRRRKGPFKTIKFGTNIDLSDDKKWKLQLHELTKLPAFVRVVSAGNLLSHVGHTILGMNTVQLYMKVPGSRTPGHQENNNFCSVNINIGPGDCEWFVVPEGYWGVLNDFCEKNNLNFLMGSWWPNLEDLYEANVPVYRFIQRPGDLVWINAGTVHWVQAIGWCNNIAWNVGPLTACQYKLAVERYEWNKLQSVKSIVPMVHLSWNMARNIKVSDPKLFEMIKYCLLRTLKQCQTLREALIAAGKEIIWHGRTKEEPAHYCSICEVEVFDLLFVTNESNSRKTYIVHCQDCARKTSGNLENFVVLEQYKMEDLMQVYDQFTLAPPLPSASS
Compound,IC50 [1] [nM],IC50 [2] [nM],IC50 [3] [nM]
"OCC/N=C/c1ccnc(CNCCc2ccccc2OCc2ccccc2)c1 [Compound 93, 2-[({2-[({2-[2-(benzyloxy)phenyl]-ethyl}amino)methyl]-pyridin-4-yl}methylidene)-amino]ethan-1-ol]",> 2500,> 2500,–
"CCN(CCC#N)C(=O)CNCc1cc(/C=N/C2CC2)ccn1 [Compound 50, N-(2-cyanoethyl)-2-[({4-[N-cyclopropyl-carboximidoyl]-pyridin-2-yl}methyl)amino]-N-ethylacetamide]",> 2500,250 to 2500,> 2500
"CN1CCN(C(=O)CNCc2cc(C=O)ccn2)CC1 [Compound 103, 2-({[2-(4-methylpiperazin-1-yl)-2-oxoethyl]-amino}methyl)-pyridine-4-carbaldehyde]",> 2500,250 to 2500,> 2500
"O=C(CNCc1cc(/C=N/C2CC2)ccn1)N1CCC(Cc2ccccc2)CC1 [Compound 55, 1-(4-benzylpiperidin-1-yl)-2-[({4-[N-cyclopropyl-carboximidoyl]-pyridin-2-yl}methyl)amino]-ethan-1-one]",> 2500,> 2500,> 2500
"CN(C)CCCCNCc1cc(C=O)ccn1 [Compound 108, 2-({[4-(dimethylamino)-butyl]amino}methyl)-pyridine-4-carbaldehyde]",> 2500,< 250,> 2500
"CCN(CCN(C)C)C(=O)CNCc1cc(C2OCC(Cc3ccccc3)CN2C(=O)C(F)(F)F)ccn1 (stereo not shown) [Compound 90, 2-[({4-[5-benzyl-3-(trifluoroacetyl)-1,3-oxazinan-2-yl]pyridin-2-yl}methyl)amino]-N-[2-(dimethylamino)-ethyl]-N-ethylacetamide]",> 2500,< 250,–
"CCN(CCC#N)C(=O)CNCc1cc(/C=N/CCO)ccn1 [Compound 94, N-(2-cyanoethyl)-N-ethyl-2-[({4-[[(2-hydroxyethyl)imino]-methyl]pyridin-2-yl}methyl)amino]-acetamide]",> 2500,250 to 2500,–
"CN(Cc1ccccc1F)C(=O)CNCc1cc(/C=N/CCO)ccn1 [Compound 92, N-[(2-fluorophenyl)methyl]-2-[({4-[[(2-hydroxyethyl)imino]-methyl]pyridin-2-yl}methyl)amino]-N-methylacetamide]",> 2500,> 2500,–
"CN(CC(=O)N1CCCCC1)Cc1cc(C=O)ccn1 [Compound 120, 2-({methyl[2-oxo-2-(piperidin-1-yl)ethyl]amino}-methyl)pyridine-4-carbaldehyde]",> 2500,> 2500,–
"CCN(CC)C(=O)CNCc1cc(/C=N/CCC2CCCCC2)ccn1 [Compound 57, 2-[({4-[[(2-cyclohexylethyl)imino]-methyl]pyridin-2-yl}methyl)amino]-N,N-diethylacetamide]",> 2500,–,> 2500
"CCCCCCCC/N=C/c1ccnc(CNCC(=O)N(CC)CC)c1 [Compound 58, N,N-diethyl-2-[({4-[(octylimino)methyl]-pyridin-2-yl}methyl)amino]-acetamide]",> 2500,–,> 2500
"CCN(CC(C)(C)N(C)C)C(=O)CNCc1cc(C=O)ccn1 [Compound 118, N-[2-(dimethylamino)-2-methylpropyl]-N-ethyl-2-{[(4-formylpyridin-2-yl)methyl]amino}-acetamide]",> 2500,< 250,–

# Further lines, results first:
IC50 [1] [nM],IC50 [2] [nM],IC50 [3] [nM],Compound
> 2500,> 2500,> 2500,"CNCc1ccnc(CNCCCN(C)Cc2ccccc2)c1 [Compound 17, benzyl(methyl){3-[({4-[(methylamino)methyl]-pyridin-2-yl)methyl)-amino]propyl}-amine]"
> 2500,< 250,> 2500,"CCN(CC)CCCCNCc1cc(C2NCCN2C)ccn1 (stereo not shown) [Compound 65, [4-(diethylamino)-butyl]({[4-(1-methylimidazolidin-2-yl)pyridin-2-yl]methyl})amine]"
> 2500,> 2500,–,"CC(C)C[C@H](NCc1cc(/C=N/CCO)ccn1)C(=O)N1CCCCC1 [Compound 95, (2S)-2-[({4-[[(2-hydroxyethyl)imino]-methyl]pyridin-2-yl}methyl)amino]-4-methyl-1-(piperidin-1-yl)pentan-1-one]"
> 2500,–,> 2500,"CCN(CC)CCCCNCc1cc(/C=N/CCOC)ccn1 [Compound 60, [4-(diethylamino)butyl]-({4-[[(2-methoxyethyl)imino]-methyl]pyridin-2-yl}methyl)amine]"
–,< 250,> 2500,"CN(C)CCCCCNCc1cc(C=O)ccn1 [Compound 114, 2-({[5-(dimethylamino)-pentyl]amino}methyl)-pyridine-4-carbaldehyde]"
> 2500,< 250,–,"CCN(CCN(C)C)C(=O)CNCc1cc(C2OCC3(CC3)CN2C(=O)C(F)(F)F)ccn1 (stereo not shown) [Compound 91, N-[2--(dimethylamino)-ethyl]-N-ethyl-2-[({4-[7-(trifluoroacetyl)-5-oxa-7-azaspiro[2.5]-octan-6-yl]pyridin-2-yl}methyl)amino]-acetamide]"
> 2500,–,> 2500,"C(=N\C1CC1)/c1ccnc(CNCCCCN2CCC2)c1 [Compound 44, N-{[2-({[4-(azetidin-1-yl)butyl]amino}methyl)-pyridin-4-yl]methylidene}-cyclopropanamine]"
–,< 250,> 2500,"CN(C)CCC/N=C/c1ccnc(CNCCCN(C)C)c1 [Compound 37, [3-(dimethylamino)propyl]-({4-[{[3-(dimethylamino)propyl]-imino}methyl]pyridin-2-yl}methyl)amine]"
